Data: patent US20130059903A1, “Compositions and Methods for Characterizing Breast Cancer” (THE JOHNS HOPKINS UNIVERSITY, priority 2010, published 2013)

What was measured:
Assay type in all cases: cell-based
ER = ER re-expression after methylation inhibitor / HDAC inhibitor treatment (qRT-PCR, immunoblot); settings: MCF-7/Twist cells; 1 μM AZA, 10 μM VPA, three days; qRT-PCR and immunoblotting
Protocol: Cells were treated with 1 μM AZA for three days and DNA processed for demethylation studies by methylation specific quantitative PCR (MS-qPCR). Total proteins were extracted and immunoblotted to analyze the effect of demethylation on ER expression. Cells were treated with HDAC inhibitor VPA at 10 μM concentration for three days and processed similarly.

MCF-7 cells [1] = assay: Dye efflux assays
Protocol: (§1) Semiconfluent cells were washed once with HBSS and resuspended in growth medium at 1×10^6 cells/ml and 5 μg/ml Hoechst 33342 (Sigma-Aldrich, St. Louis, Mo.) and incubated for 45 minutes at 37° C. in a constant-temperature water bath. Subsequently, the cells were washed once in cold HBSS/2% BSA and resuspended in warm medium and incubated for 45 minutes at 37° C. for efflux. Cells were centrifuged and mounted on a slide before photomicroscopy.
(§2) For Rhodamine 123 (Sigma-Aldrich) staining, cells were trypsinized and washed twice in PBS/1% FCS. One million cells were resuspended in 100 μl of PBS/1% FCS and stained with 100 to 500 ng/ml Rhodamine 123 for 15 to 30 minutes at 37° C. Cells were washed twice at room temperature, resuspended, and incubated without Rhodamine 123 for 15 to 30 minutes at 37° C. to allow for efflux to occur. Rhodamine efflux was subsequently determined by flow cytometry on a FACScan II flow cytometer.

MCF-7/Twist cells [2] = assay: Dye efflux assays
Protocol: as §1, §2

MCF-7 cells [3] = assay: Cell cycle analysis by flow cytometry after anti-estrogen treatment; settings: 1 μM 4-hydroxytamoxifen or 1 nM fulvestrant in PRF-MEM/5% CSS, three days
Protocol: (§3) Cell lines were obtained from ATCC (Manassas, Va.) and maintained as instructed. Construction of MCF-7/Twist and MCF 10A/Twist cell lines have been described earlier (19, 23). For transient expression, cells were transfected using either retroviral constructs (generated in-house) or lentiviral constructs (Open Biosystems, Huntsville, Ala.). For hormone studies, cells were grown for two days in phenol-red free minimal essential media (PRF-MEM) containing 5% charcoal stripped serum (CSS). For anti-estrogen treatment, PRFMEM/5% CSS media was supplemented with 1 μM 4-hydroxytamoxifen (tamoxifen) or 1 nM fulvestrant. Three days following treatment, the cells were fixed in 70% ethanol and cell cycle analysis performed on a FacScan I (BD Biosciences, San Jose, Calif.). Independent experiments were repeated four times. Data was analyzed using FlowJo (Tree Star Inc., Ashland, Oreg.) and ModFit LT 2.0 software (Verity House Software, Topsham, Me.).

MCF-7/Twist cells [4] = assay: as above; settings: 1 μM 4-hydroxytamoxifen or 1 nM fulvestrant in PRF-MEM/5% CSS, three days
Protocol: as §3

[5] = 5 μg/ml Hoechst 33342, 45 minutes efflux, microscopy

Nc1ncn([C@H]2C[C@H](O)[C@@H](CO)O2)c(=O)n1 [AZA, 5-aza 2′-deoxycytidine]
ER expression (transcript and protein levels) (ER): significant increase

CCOc1ccc(-c2nc3ccc(-c4nc5ccc(N6CCN(C)CC6)cc5[nH]4)cc3[nH]2)cc1 [Hoechst 33342]
relative fluorescence intensity per cell (dye retained after efflux) (MCF-7 cells [1]; [5]): 65
relative fluorescence intensity per cell (dye retained after efflux) (MCF-7/Twist cells [2]; [5]): 57

CCCC(CCC)C(=O)O [VPA, valproic acid]
ER expression (transcript and protein levels) (ER): significant increase

C[C@]12CC[C@@H]3c4ccc(O)cc4C[C@@H](CCCCCCCCC[S+]([O-])CCCC(F)(F)C(F)(F)F)[C@H]3[C@@H]1CC[C@@H]2O (stereo partly drawn) [fulvestrant]
G1 (percentage of cells in cell cycle phase) (MCF-7 cells [3]): 86%
G2/M (percentage of cells in cell cycle phase) (MCF-7 cells [3]): 5.8%
S (percentage of cells in cell cycle phase) (MCF-7 cells [3]): 3.9%
G1 (percentage of cells in cell cycle phase) (MCF-7/Twist cells [4]): 67.7%
G2/M (percentage of cells in cell cycle phase) (MCF-7/Twist cells [4]): 13.3%
S (percentage of cells in cell cycle phase) (MCF-7/Twist cells [4]): 16.6%

Rhodamine 123
mean fluorescence intensity (dye retained after efflux) (MCF-7 cells [1]; Rhodamine 123, flow cytometry): 205
mean fluorescence intensity (dye retained after efflux) (MCF-7/Twist cells [2]; Rhodamine 123, flow cytometry): 96
